For test [1], the target named is T1, focal adhesion kinase (FAK) autophosphorylation at tyrosine 397 in HT29 cells (Homo sapiens, UniProt Q05397).
T1 construct: endogenous in cells; host or cells: HT29
Nature of the test: Cellular testing of FAK inhibitors: FAK autophosphorylation at tyrosine 397 in HT29 cells (Luminex-based assay). The note with it: 30 min serum-free. Format: cell-based. The protocol: 2. Assay Principle for Celluar Testing of FAK Inhibitors
Cellular activity of focal adhesion kinase (FAK) is determined by the degree of FAK autophosphorylation at tyrosine 397 using a Luminex-based assay. HT29 cells are plated with 30,000 cells per well of a 96-well plate in 100 μl medium (90% DMEM/10% FCS). At the following day, test compounds are added in a serial dilution under serum-free conditions for 30 min. Then, cells were lysed with 90 μl lysis buffer (20 mM Tris/HCl pH 8.0, 150 mM NaCl, 1% NP40, 10% Glycerol, 1% Phosphatase-Inhibitor II, 20 mM […]-Glycerolphosphat, 0.1% Protease-Inhibitor Cocktail III, 0.01% Benzonase) and lysates were cleared by centrifugation through a 96-well filter plate (0.65 μm). Samples were incubated with Luminex-beads which were coupled with an anti-total FAK antibody overnight at 4° C. with under gentle agitation. For detection of phospho-Y397-FAK a phosphospecific antibody and a species specific PE-labeled secondary antibody are added. The amount of phospho-Y397-FAK is determined in a Luminex100 machine measuring 100 events per well within 60 seconds.
Counts from samples treated with a FAK reference inhibitor are subtracted as pharmacological blank. Counts from samples treated with test compounds are calculated as percent of control from solvent treated (0.3% DMSO) samples. IC50 values were determined using AssayExplorer software.

In test [2] the target is T2, GST-FAK (N-terminal GST fusion with truncated human FAK (376-1052 (end) amino acids)) (Homo sapiens, UniProt Q05397).
T2 construct: truncated human FAK (376-1052 (end) amino acids)
Nature of the test: Biochemical enzyme assay for FAK activity (Caliper LC3000 mobility shift). To be noted: 100 uM ATP. In outline:
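Inhibitor dose series in DMSO were incubated 90 min at 25 °C with truncated GST-tagged human FAK (0.067 ng/µl) and FITC-labelled peptide substrate (1 µM), with ATP at 100 µM and FERM peptide at 1 mM (pH 7.5 HEPES). After EDTA quench, phosphorylated and unphosphorylated peptides were resolved electrophoretically. Percent conversion was fitted for IC50.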

The mark [3] stands for this setting: Table 3, phospho-Y397-FAK, read-out: HT-29 IC50.
Where [4] appears, read: Table 2, phospho-Y397-FAK, read-out: HT-29 IC50.

SMILES strings stand for the structures. Read-outs that look alike come from different tables or passages of the source.

This passage reports IC50 results from patent US9199962B2, “Substituted azaheterocycles for the treatment of cancer” (Merck Patent GmbH, priority 2011, dated 2015).

T2 sequence (Q05397 376-1052): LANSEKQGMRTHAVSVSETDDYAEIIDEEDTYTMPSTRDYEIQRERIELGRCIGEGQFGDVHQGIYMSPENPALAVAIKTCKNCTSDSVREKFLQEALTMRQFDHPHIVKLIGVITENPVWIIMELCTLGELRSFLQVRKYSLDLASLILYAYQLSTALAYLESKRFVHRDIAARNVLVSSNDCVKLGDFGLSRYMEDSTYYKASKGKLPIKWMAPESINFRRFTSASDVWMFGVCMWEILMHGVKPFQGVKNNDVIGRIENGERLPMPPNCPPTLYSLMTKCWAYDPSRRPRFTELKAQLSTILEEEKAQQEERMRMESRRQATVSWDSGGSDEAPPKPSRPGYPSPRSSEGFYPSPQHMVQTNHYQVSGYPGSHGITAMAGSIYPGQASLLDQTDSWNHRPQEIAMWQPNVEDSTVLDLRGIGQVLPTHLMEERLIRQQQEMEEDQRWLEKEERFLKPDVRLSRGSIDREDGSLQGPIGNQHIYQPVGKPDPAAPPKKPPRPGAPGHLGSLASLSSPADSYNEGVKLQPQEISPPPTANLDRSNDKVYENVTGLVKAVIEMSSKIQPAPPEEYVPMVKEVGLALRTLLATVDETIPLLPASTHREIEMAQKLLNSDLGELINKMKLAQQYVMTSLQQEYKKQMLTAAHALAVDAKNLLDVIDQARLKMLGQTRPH
T1 sequence (Q05397 whole entry): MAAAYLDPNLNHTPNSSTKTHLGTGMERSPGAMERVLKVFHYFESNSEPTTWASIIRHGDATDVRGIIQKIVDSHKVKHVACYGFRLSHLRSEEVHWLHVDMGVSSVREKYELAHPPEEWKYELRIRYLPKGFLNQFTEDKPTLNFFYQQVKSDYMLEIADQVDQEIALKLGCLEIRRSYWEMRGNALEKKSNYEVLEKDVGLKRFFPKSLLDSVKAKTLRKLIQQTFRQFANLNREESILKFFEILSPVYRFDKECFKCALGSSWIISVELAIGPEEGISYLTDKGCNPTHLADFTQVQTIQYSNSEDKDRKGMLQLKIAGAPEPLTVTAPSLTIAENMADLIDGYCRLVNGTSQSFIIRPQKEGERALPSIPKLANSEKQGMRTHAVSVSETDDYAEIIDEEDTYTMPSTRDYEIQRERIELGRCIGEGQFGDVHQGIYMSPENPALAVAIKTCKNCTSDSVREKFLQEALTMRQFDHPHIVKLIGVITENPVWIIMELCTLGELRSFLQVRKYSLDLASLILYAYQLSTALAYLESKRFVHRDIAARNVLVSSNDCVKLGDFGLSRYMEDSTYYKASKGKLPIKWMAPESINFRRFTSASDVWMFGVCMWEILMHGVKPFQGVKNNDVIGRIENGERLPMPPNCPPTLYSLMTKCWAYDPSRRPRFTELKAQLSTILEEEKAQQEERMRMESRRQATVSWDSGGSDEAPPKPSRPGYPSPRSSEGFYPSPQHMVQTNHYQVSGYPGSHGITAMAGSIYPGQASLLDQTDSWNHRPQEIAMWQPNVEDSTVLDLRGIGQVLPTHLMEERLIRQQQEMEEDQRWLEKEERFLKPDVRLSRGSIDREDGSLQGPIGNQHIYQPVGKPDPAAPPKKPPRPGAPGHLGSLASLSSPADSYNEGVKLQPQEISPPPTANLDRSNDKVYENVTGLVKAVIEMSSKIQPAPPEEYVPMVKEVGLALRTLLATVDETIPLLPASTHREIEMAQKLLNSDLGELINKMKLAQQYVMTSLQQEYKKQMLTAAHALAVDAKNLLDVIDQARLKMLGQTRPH

Regarding `Fc1ccc(F)c(CNc2ccnc(-c3cncc(C(F)(F)F)c3)n2)c1` [Compound 154, N-[(2,5-difluorophenyl)methyl]-2-[5-(trifluoromethyl)-3-pyridyl]pyrimidin-4-amine], the IC50 (in general, the concentration needed to halve the response being measured) in test [1] (Table 4, phospho-Y397-FAK, read-out: IC50 HT-29) was 1 to 10 µM; in test [2] (Table 4, read-out: IC50 FAK), 100 to 1000 nM. Consider `Fc1ccc(CNc2ccnc(-c3cncc(C(F)(F)F)c3)n2)c(C(F)(F)F)c1` [Compound 123, N-[4-Fluoro-2-(trifluoromethyl)benzyl]-2-[5-(trifluoromethyl)pyridin-3-yl]pyrimidin-4-amine], for which the IC50 in test [1] (setting [3]) was 1 to 10 µM; in test [2] (Table 3, read-out: FAK IC50), less than 100 nM.

In the case of `Fc1ccc(CNc2cc(NCCCn3ccnc3)nc(-c3cncc(C(F)(F)F)c3)n2)c(F)c1` [Compound 56, N-(2,4-Difluoro-benzyl)-N′-(3-imidazol-1-yl-propyl)-2-(5-trifluoromethyl-pyridin-3-yl)-pyrimidine-4,6-diamine], the 50% inhibitory concentration (IC50) in test [1] (setting [4]) lay in the range of 1 to 10 µM; in test [2] (Table 2, read-out: FAK IC50), 100 to 1000 nM. With `NC(=O)CCNC(=O)c1cc(NCc2ccc(F)cc2F)nc(-c2cncc(C(F)(F)F)c2)n1` [Compound 41, 6-(2,4-Difluoro-benzylamino)-2-(5-trifluoromethyl-pyridin-3-yl)-pyrimidine-4-carboxylic acid (2-carbamoyl-ethyl)-amide], the IC50 is 0.1 to 1 µM in test [1] (setting [4]) and less than 100 nM in test [2] (Table 2, read-out: FAK IC50). Take `Clc1cncc(-c2nccc(NCc3cccc4c3OCO4)n2)c1` [Compound 127, N-(1,3-Benzodioxol-4-ylmethyl)-2-(5-chloropyridin-3-yl)pyrimidin-4-amine]: the IC50 in test [1] (setting [3]) is greater than 10 µM; in test [2] (Table 3, read-out: FAK IC50) it was less than 100 nM. On to `O=C(NCCCN1CCOCC1)c1cc(NCc2ccc(F)cc2F)nc(-c2cncc(C(F)(F)F)c2)n1` [Compound 48, 6-(2,4-Difluoro-benzylamino)-2-(5-trifluoromethyl-pyridin-3-yl)-pyrimidine-4-carboxylic acid (3-morpholin-4-yl-propyl)-amide], for which the IC50 was greater than 10 µM in test [1] (setting [4]) and less than 100 nM in test [2] (Table 2, read-out: FAK IC50). For the compound `Fc1ccc(CNc2ccnc(-c3cncc(C(F)(F)F)c3)n2)c(F)c1` [Compound 125, N-(2,4-Difluorobenzyl)-2-[5-(trifluoromethyl)pyridin-3-yl]pyrimidin-4-amine], the IC50 in test [1] (setting [3]) is 1 to 10 µM; in test [2] (Table 3, read-out: FAK IC50), less than 100 nM.

Regarding `CC1(C)Cc2cccc(CNc3ccnc(-c4cncc(Cl)c4)n3)c2O1` [Compound 18, [2-(5-Chloro-pyridin-3-yl)-pyrimidin-4-yl]-(2,2-dimethyl-2,3-dihydro-benzofuran-7-ylmethyl)-amine], the IC50 in test [2] (Table 1, read-out: FAK IC50) is greater than 10000 nM. Consider `Fc1ccc(CNc2cccc(-c3cncc(C(F)(F)F)c3)n2)c(F)c1` [Compound 231, (2,4-Difluoro-benzyl)-(5′-trifluoromethyl-[2,3′]bipyridinyl-6-yl)-amine], for which the half-inhibitory concentration (IC50) in test [2] (Table 5, read-out: FAK IC50) was less than 100 nM. On to `Fc1cncc(-c2nccc(NCc3ccc(N4CCOCC4)cc3)n2)c1` [Compound 10, [2-(5-Fluoro-pyridin-3-yl)-pyrimidin-4-yl]-(4-morpholin-4-yl-benzyl)-amine], for which the IC50 in test [2] (Table 1, read-out: FAK IC50) is greater than 10000 nM. On to `COc1ccccc1CNc1ccnc(-c2cccnc2N)n1` [Compound 83, 2-(2-Aminopyridin-3-yl)-N-(2-methoxybenzyl)pyrimidin-4-amine], for which the IC50 in test [2] (Table 3, read-out: FAK IC50) fell in the range of 1000 to 10000 nM. For `COc1cncc(-c2nccc(NCc3ccc(Oc4ccc(F)cc4)cc3)n2)c1` [Compound 2, [4-(4-Fluoro-phenoxy)-benzyl]-[2-(5-methoxy-pyridin-3-yl)-pyrimidin-4-yl]-amine], the IC50 in test [2] (Table 1, read-out: FAK IC50) was greater than 10000 nM. Regarding `Fc1cc(Cl)ccc1CNc1nccc(-c2cncc(C(F)(F)F)c2)n1` [Compound 244, (4-Chloro-2-fluoro-benzyl)-[4-(5-trifluoromethyl-pyridin-3-yl)-pyrimidin-2-yl]-amine], the IC50 in test [2] (Table 5, read-out: FAK IC50) fell in the range of 100 to 1000 nM.

As to `COc1ccc(CNc2ccnc(-c3cncc(F)c3)n2)c(F)c1F` [Compound 21, (2,3-Difluoro-4-methoxy-benzyl)-[2-(5-fluoro-pyridin-3-yl)-pyrimidin-4-yl]-amine], in test [2] (Table 1, read-out: FAK IC50), the IC50 is 1000 to 10000 nM.

In the case of `CNCC(Nc1ccnc(-c2cccnc2)n1)c1ccccc1` (stereo not shown) [Compound 143, N2-Methyl-1-phenyl-N1-(2-pyridin-3-ylpyrimidin-4-yl)ethane-1,2-diamine], in test [2] (Table 3, read-out: FAK IC50), the IC50 is greater than 10000 nM. As to `Nc1ncccc1-c1cccc(NCc2ccccc2F)c1` [Compound 105, 3-{3-[(2-Fluorobenzyl)amino]phenyl}pyridin-2-amine], the IC50 in test [2] (Table 3, read-out: FAK IC50) is greater than 10000 nM. On to `COc1cncc(-c2nccc(NCCN3CCCC3=O)n2)c1` [Compound 199, 1-{2-[2-(5-Methoxy-pyridin-3-yl)-pyrimidin-4-ylamino]-ethyl}-pyrrolidin-2-one], for which the IC50 in test [2] (Table 5, read-out: FAK IC50) was greater than 10000 nM. As to `CCOC(=O)c1ccccc1Nc1ccnc(-c2cncc(C(F)(F)F)c2)n1` [Compound 250, 2-[2-(5-Trifluoromethyl-pyridin-3-yl)-pyrimidin-4-ylamino]-benzoic acid ethyl ester], in test [2] (Table 5, read-out: FAK IC50), the IC50 is greater than 10000 nM. `Nc1ncccc1-c1nccc(NCc2ccccc2)n1` [Compound 81, 2-(2-Aminopyridin-3-yl)-N-benzylpyrimidin-4-amine]: the IC50 in test [2] (Table 3, read-out: FAK IC50) lay in the range of 1000 to 10000 nM. On to `FC(F)(F)c1cncc(-c2nccc(NCc3cccnc3)n2)c1` [Compound 238, Pyridin-3-ylmethyl-[2-(5-trifluoromethyl-pyridin-3-yl)-pyrimidin-4-yl]-amine], for which the IC50 in test [2] (Table 5, read-out: FAK IC50) lay in the range of 100 to 1000 nM.

As for `CNC(=O)c1ccccc1Nc1ccnc(-c2cncc(C(F)(F)F)c2)n1` [Compound 256, N-Methyl-2-[2-(5-trifluoromethyl-pyridin-3-yl)-pyrimidin-4-ylamino]-benzamide], the IC50 in test [2] (Table 5, read-out: FAK IC50) is greater than 10000 nM. As to `Fc1cncc(-c2nccc(NCc3ccc(Cl)cc3F)n2)c1` [Compound 33, (4-Chloro-2-fluoro-benzyl)-[2-(5-fluoro-pyridin-3-yl)-pyrimidin-4-yl]-amine], in test [2] (Table 1, read-out: FAK IC50), the half-inhibitory concentration (IC50) is less than 100 nM. As for `CN1CCCC1CCNc1ccnc(-c2cncc(C(F)(F)F)c2)n1` (stereo not shown) [Compound 197, [2-(1-Methyl-pyrrolidin-2-yl)-ethyl]-[2-(5-trifluoromethyl-pyridin-3-yl)-pyrimidin-4-yl]-amine], in test [2] (Table 5, read-out: FAK IC50), the IC50 is greater than 10000 nM. On the same count and under the same terms, the value for `COc1cncc(-c2nccc(NCCc3ccccc3Cl)n2)c1` [Compound 203, [2-(2-Chloro-phenyl)-ethyl]-[2-(5-methoxy-pyridin-3-yl)-pyrimidin-4-yl]-amine] was 1000 to 10000 nM.

`Cc1ccc(CNc2ccnc(-c3cccnc3N)n2)c(F)c1` [Compound 101, 2-(2-Aminopyridin-3-yl)-N-(2-fluoro-4-methylbenzyl)pyrimidin-4-amine]: the IC50 in test [2] (Table 3, read-out: FAK IC50) fell in the range of 1000 to 10000 nM. On the same count and under the same terms, with `Cc1cc(NCc2cccc(C(F)(F)F)c2)nc(-c2cccnc2)n1` [Compound 140, 6-Methyl-2-pyridin-3-yl-N-[3-(trifluoromethyl)benzyl]pyrimidin-4-amine] the figure was greater than 10000 nM; with `Nc1ccc(-c2nccc(NCc3ccccc3C(F)(F)F)n2)cn1` [Compound 94, 2-(6-Aminopyridin-3-yl)-N-[2-(trifluoromethyl)benzyl]pyrimidin-4-amine], 1000 to 10000 nM. Regarding `COc1cncc(-c2nccc(NCc3ccc(Cl)cc3F)n2)c1` [Compound 16, (4-Chloro-2-fluoro-benzyl)-[2-(5-methoxy-pyridin-3-yl)-pyrimidin-4-yl]-amine], the IC50 in test [2] (Table 1, read-out: FAK IC50) lay in the range of 100 to 1000 nM.

With `Clc1cncc(-c2nccc(NCc3ccc(N4CCOCC4)cc3)n2)c1` [Compound 20, [2-(5-Chloro-pyridin-3-yl)-pyrimidin-4-yl]-(4-morpholin-4-yl-benzyl)-amine], the IC50 in test [2] (Table 1, read-out: FAK IC50) is greater than 10000 nM. For the compound `COc1ccccc1CCNc1ccnc(-c2cncc(C(F)(F)F)c2)n1` [Compound 201, [2-(2-Methoxy-phenyl)-ethyl]-[2-(5-trifluoromethyl-pyridin-3-yl)-pyrimidin-4-yl]-amine], the IC50 in test [2] (Table 5, read-out: FAK IC50) was in the range of 1000 to 10000 nM. Consider `COc1cncc(-c2nccc(NCc3cccnc3)n2)c1` [Compound 229, [2-(5-Methoxy-pyridin-3-yl)-pyrimidin-4-yl]-pyridin-3-ylmethyl-amine], for which, in test [2] (Table 5, read-out: FAK IC50), the IC50 was in the range of 1000 to 10000 nM.

With `COc1cncc(-c2nccc(NCc3cccc(Oc4cnccn4)c3)n2)c1` [Compound 3, [2-(5-Methoxy-pyridin-3-yl)-pyrimidin-4-yl]-[3-(pyrazin-2-yloxy)-benzyl]-amine], in test [2] (Table 1, read-out: FAK IC50), the 50% inhibitory concentration (IC50) is greater than 10000 nM. In the case of `CC1(C)Cc2cccc(CNc3ccnc(-c4cncc(C(F)(F)F)c4)n3)c2O1` [Compound 26, (2,2-Dimethyl-2,3-dihydro-benzofuran-7-ylmethyl)-[2-(5-trifluoromethyl-pyridin-3-yl)-pyrimidin-4-yl]-amine], in test [2] (Table 1, read-out: FAK IC50), the IC50 is greater than 10000 nM.
